Data: patent US20080207731A1, “3-(3-INDOLYL) PROPIONIC ACID CALCIUM SALT AND METHOD OF MAKING 3-(3-INDOLYL) PROPIONIC ACID FREE ACID THEREFROM” (Intellect Neurosciences, Inc., priority 2006, published 2008)
Counter-ions that a name gives are not always drawn.

Experiments:
[1] = solubility in water of 3-IPA salts; type: physicochemical
cultured neurons = conditions: background statement; cited from earlier work

solubility in water ([1]; compared to the calcium salts of other acids present in the reaction mixture (e.g., acrylic acid or acetic acid)) | solubility ([1]; compared to the free acid form of 3-IPA) | Structure (SMILES) | protection from toxicity of the Aβ peptide (cultured neurons)
much less soluble in water | low solubility | O=C(O)CCc1c[nH]c2ccccc12 [3-IPA calcium, calcium salt of 3-(3-indolyl)propionic acid] | 
 |  | O=C(O)CCc1c[nH]c2ccccc12 [3-IPA, 3-(3-indolyl)propionic acid] | protect cultured neurons from the toxicity of the Aβ peptide
